The source made the active and inactive calls. The calls are words filed in the database; no cut-off is given here.
How the values were obtained:
[1] = target: T1, Potassium/sodium hyperpolarization-activated cyclic nucleotide-gated channel 4 (Homo sapiens) (UniProt Q9Y3Q4); experiment: Inhibition of human HCN4 expressed in HEK293 cells assessed as reduction in hyperpolarization activated current at 5 uM at holding potential of -80 mV by patch clamp assay relative to control; type: cell-based
T1 sequence (whole entry): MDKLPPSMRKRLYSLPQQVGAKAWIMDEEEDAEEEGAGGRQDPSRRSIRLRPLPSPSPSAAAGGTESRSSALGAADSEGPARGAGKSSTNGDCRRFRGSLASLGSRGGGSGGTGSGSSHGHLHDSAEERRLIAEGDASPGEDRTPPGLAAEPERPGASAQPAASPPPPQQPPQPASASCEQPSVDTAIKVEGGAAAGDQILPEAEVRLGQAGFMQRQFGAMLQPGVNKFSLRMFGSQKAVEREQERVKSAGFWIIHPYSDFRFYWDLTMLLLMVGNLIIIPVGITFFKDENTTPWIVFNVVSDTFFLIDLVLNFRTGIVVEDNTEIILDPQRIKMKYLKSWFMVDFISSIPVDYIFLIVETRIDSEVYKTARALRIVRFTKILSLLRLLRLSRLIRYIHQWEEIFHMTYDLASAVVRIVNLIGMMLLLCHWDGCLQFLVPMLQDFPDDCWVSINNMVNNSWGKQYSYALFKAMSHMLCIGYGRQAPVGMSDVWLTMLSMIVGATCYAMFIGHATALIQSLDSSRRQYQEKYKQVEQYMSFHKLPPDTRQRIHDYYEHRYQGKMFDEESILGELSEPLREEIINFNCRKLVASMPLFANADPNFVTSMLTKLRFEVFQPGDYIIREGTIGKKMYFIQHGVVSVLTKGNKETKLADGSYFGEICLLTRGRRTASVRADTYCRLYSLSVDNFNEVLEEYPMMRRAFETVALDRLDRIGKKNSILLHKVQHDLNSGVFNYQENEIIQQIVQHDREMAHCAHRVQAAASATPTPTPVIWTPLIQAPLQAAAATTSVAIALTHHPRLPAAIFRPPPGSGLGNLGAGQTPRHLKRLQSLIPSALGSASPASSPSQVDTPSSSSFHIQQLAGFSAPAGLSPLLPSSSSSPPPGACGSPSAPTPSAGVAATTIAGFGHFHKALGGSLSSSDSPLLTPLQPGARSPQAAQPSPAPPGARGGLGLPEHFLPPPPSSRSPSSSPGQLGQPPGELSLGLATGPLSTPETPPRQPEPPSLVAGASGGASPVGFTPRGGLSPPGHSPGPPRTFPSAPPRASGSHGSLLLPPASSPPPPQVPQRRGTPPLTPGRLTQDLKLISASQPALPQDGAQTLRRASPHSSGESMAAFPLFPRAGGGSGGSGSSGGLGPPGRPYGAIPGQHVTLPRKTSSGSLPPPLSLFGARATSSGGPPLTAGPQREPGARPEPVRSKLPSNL

[2] = target: Potassium/sodium hyperpolarization-activated cyclic nucleotide-gated channel 1 (Mus musculus, UniProt O88704); experiment: Inhibition of mouse HCN1 expressed in HEK293 cells assessed as reduction in hyperpolarization activated current at holding potential of -80 mV by patch clamp assay; type: cell-based
[3] = Selectivity ratio of EC50 for human HCN1 to EC50 for mouse HCN4
[4] = tested on: Cardiac muscle of left ventricle; experiment: (§1) Effect on cardiac electrophysiological profile in Mongrel perfused dog heart left ventricular muscle stimulated at basic cycle length of 1000 milliseconds assessed as conduction time at 1 uM measured after 25 mins by glass capillary microelectrode based electrophysiology assay (reference value: 4.8 +/- 0.60 milliseconds); type: functional, Canis lupus familiaris
[5] = tested on: Cardiac muscle of left ventricle; experiment: as §1, with “as maximum diastolic potential” for “as conduction time”, “at 10” for “at 1”, “value: -83.8” for “value: 4.8”, “+/- 2.28 mV)” for “+/- 0.60 milliseconds)”; type: functional, Canis lupus familiaris
[6] = tested on: Cardiac muscle of left ventricle; experiment: as §1, with “as Vmax” for “as conduction time”, “at 10” for “at 1”, “value: 244.6” for “value: 4.8”, “+/- 30.87 V/s)” for “+/- 0.60 milliseconds)”; type: functional, Canis lupus familiaris
[7] = target: T2, Potassium/sodium hyperpolarization-activated cyclic nucleotide-gated channel 4 (Mus musculus) (UniProt O70507); experiment: Inhibition of HCN4 in C57BL/6J mouse thalamocortical relay neuron assessed as reduction in hyperpolarization current at 30 uM at holding potential of -120 mV by whole-cell patch clamp assay relative to control
T2 sequence (whole entry): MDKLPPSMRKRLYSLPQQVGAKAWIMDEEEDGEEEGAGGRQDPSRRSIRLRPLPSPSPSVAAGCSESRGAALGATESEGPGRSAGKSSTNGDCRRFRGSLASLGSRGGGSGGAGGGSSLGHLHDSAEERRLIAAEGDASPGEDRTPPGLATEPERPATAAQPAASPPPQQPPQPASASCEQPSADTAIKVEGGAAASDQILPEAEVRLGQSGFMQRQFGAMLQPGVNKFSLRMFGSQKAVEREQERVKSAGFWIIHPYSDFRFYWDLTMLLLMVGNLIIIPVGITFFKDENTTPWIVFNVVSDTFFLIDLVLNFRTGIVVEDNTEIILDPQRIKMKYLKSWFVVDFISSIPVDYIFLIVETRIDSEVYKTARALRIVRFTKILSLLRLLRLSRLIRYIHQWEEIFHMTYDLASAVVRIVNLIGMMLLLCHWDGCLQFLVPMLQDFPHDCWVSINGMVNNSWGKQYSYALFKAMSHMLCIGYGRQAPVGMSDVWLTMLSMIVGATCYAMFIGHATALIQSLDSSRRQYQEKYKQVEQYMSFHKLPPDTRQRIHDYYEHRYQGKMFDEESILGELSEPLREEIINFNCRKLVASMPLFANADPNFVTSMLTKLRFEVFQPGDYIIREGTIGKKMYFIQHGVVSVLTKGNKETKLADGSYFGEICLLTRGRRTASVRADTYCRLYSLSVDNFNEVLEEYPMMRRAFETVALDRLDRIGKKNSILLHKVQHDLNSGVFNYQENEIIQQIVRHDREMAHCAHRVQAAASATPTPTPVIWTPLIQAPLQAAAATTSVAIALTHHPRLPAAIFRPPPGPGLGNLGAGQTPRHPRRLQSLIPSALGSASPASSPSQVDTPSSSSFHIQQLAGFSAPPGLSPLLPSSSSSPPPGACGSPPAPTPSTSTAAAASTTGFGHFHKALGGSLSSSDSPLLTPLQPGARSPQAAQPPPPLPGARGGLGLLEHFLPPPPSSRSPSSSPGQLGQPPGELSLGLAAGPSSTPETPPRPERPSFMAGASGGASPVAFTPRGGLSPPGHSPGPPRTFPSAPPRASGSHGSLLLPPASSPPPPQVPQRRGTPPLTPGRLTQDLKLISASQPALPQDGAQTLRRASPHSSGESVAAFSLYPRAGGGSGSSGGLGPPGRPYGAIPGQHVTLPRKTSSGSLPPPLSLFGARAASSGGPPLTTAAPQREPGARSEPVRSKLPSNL

[8] = species on record: Mus musculus; experiment: Effect on transient A type potassium channel in C57BL/6J mouse thalamocortical relay neuron assessed as effect on early transient current at 10 uM by whole cell patch clamp assay relative to control

Chain of Potassium/sodium hyperpolarization-activated cyclic nucleotide-gated channel 1 (O88704 whole entry): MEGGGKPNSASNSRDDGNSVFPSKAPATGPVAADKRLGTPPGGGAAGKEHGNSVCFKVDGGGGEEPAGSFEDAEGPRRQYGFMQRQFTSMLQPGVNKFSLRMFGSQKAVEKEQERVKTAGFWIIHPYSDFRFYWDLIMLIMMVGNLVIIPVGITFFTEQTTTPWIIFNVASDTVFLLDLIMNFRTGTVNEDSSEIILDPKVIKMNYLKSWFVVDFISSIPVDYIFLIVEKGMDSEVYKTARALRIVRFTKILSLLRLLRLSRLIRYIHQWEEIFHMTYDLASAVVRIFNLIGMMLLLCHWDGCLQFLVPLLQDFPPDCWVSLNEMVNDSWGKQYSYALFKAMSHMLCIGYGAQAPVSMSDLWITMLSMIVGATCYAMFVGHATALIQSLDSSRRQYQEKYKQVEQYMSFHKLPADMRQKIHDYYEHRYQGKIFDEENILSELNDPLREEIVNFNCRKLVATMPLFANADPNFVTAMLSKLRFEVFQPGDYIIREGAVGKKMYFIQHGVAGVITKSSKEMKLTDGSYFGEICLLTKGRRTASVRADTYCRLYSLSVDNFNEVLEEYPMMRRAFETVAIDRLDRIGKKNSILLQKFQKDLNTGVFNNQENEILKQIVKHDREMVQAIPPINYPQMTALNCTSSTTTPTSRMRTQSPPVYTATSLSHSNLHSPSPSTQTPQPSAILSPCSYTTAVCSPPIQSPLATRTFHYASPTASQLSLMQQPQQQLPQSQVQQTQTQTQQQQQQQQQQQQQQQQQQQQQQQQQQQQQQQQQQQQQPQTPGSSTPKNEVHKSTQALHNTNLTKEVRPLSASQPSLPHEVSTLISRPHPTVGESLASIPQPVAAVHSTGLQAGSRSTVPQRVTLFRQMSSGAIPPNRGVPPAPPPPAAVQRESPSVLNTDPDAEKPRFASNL

inhibition [1]: 59% | EC50 [2]: 21 µM | Ratio EC50 [3]: 5 | inhibition [7]: 91.3% | Activity [8]: inactive
SMILES: COc1ccc(CCN(C)[C@@H]2CCC[C@H](N3CCc4cc(OC)c(OC)cc4CC3=O)C2)cc1OC (racemic)
Time [4]: 4.7 ms | Activity [5]: -83 mV | Activity [6]: 140.6 V/s

— ChEMBL document CHEMBL4433219, “EC18 as a Tool To Understand the Role of HCN4 Channels in Mediating Hyperpolarization-Activated Current in Tissues” (ACS Med Chem Lett, 2019)
